The source of these data is patent US20250011311A1, “AMIDO HETEROAROMATIC COMPOUNDS” (AstraZeneca AB, priority 2022, published 2025).

Assay [1] concerns the target over expressed HSD17β13 in HEK293S cells (Homo sapiens (Human), UniProt Q7Z5P4). Description: In Vitro 17bHSD13 Cell Assay. The assay is classed as cell-based. The conditions noted are these: HEK293S cells over expressing HSD17β13; estradiol to estrone conversion, 18 h, LC-MS/MS; read-out: 17bHSD1713 Cell assay IC50. As for the experimental part:
In Vitro 17bHSD13 Cell Assay
Inhibition of 17bHSD13 was measured in a cell-based assay with over expressed HSD17β13 in HEK293S cells, measuring estradiol to estrone conversion by LCMS/MS.
Samples were analyzed using LC-MS/MS.
(§1) SCIEX LC-MS/MS system: Sample was injected with CTC analytical injector, SHIMATZU LC pumps LC20 and analysed on the SCIEX API 5000 LCMSMS system with the following settings. […] The mobile phases consist of A (water with 0.2% formic acid) and B (acetonitrile with 0.2% formic acid). The LC gradient profile is as follows: 50% B during 0 to 0.5 min, a linear increase to 100% B during 0.5 to 1 min, hold at 100% B during 1 to 1.6 min then back to 50% B from 1.6 to 2 min. […] Detection was performed on a API 5000 LC/MS/MS system with a triple quadrupole mass spectrometer, a TURBO V ion source, in multiple reaction monitoring (MRM) mode at positive polarity with APCI probe. […] The dwell times were 100 ms for each transition and a depolarization and collision energy of 100 and 40, respectively. Data from MS signals was using area under curve (AUC). Ratio=Estrone/(Estrone+Estradiol)
(§2) […] […] was used for curve fitting and calculation of IC50 values.
(§3) Compound effect was calculated with the formula below;
(§4) where X represents the effect in the presence of test compound, min is DMSO and max is the maximum inhibition of enzyme using a known inhibitor as control.

The target of assay [2] is over expressed HSD17β9 in HEK293S cells (Homo sapiens (Human), UniProt Q92781). As to the kind of experiment: In Vitro 17bHSD9 Cell Assay. The conditions noted are these: HEK293S cells over expressing HSD17β9; retinol to retinal conversion, 18 h, LC-MS/MS; read-out: 17bHSD9 Cell assay IC50. Format: cell-based. As to the method: In Vitro 17bHSD9 Cell Assay
Sequence of over expressed HSD17β9 in HEK293S cells (Q92781 whole entry): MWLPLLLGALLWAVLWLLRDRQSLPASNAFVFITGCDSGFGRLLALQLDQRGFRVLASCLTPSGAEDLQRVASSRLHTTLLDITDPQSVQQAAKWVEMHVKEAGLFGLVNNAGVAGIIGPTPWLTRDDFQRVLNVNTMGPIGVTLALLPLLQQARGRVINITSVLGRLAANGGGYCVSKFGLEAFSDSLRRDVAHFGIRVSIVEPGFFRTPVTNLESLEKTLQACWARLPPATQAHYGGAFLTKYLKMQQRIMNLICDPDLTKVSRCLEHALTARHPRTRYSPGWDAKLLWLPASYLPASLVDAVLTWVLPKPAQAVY
Inhibition of 17bHSD9 was measured in a cell-based assay with over expressed HSD17β9 in HEK293S cells, measuring retinol to retinal conversion by LCMS/MS.
Cells were plated in 384 well plates (GREINER CELL culture plate 384w black/clear Poly-D-Lysine) at 10 K c/w in 30 μl of culture media (DMEM with GLUTAMAX plus 10% FBS). […] After 18 h of cell culturing for 20 μl of media was transferred using BRAVO dispensing robot (AGILENT) to a GREINER PP 384 well plate (781280) and 40 μl of 50% acetonitrile was added. Samples were analyzed using LC-MS/MS.
SCIEX LC-MS/MS system: Sample was injected with CTC analytical injector, SHIMATZU LC pumps LC20 and analysed on the SCIEX API 5000 LCMSMS system with the following settings. Samples were chromatographed on a WATERS, symmetry, C8, 3.5 μm, 2.1×50 mm) column at constant flow rate of 0.5 mL/min. The mobile phases consists of A (water with 0.2% formic acid) and B (acetonitrile with 0.2% formic acid). The LC gradient profile is as follows: 50% B during 0 to 0.1 min, a linear increase to 100% B during 0.1 to 0.8 min, hold at 100% B during 0.8 to 1.5 min then back to 50% B from 1.5 to 1.6 min and hold during run time. The run time was 2 min with retention times of approximately 1.54 and 1.62 min for Retinol and Retinal, respectively. Detection was performed on a API 5000 LC/MS/MS system with a triple quadrupole mass spectrometer, a TURBO V ion source, in multiple reaction monitoring (MRM) mode at positive polarity with ESI probe. The MRM pairs were m/z 269.3 to m/z 93.0 and m/z 285.2 to 161.0. for Retinol and Retinal, respectively. The dwell times were 100 ms for each transition and a depolarization and collision energy of 50 and 25, respectively. Data from MS signals was using area under curve (AUC). Ratio=Retinal/(Retinal+Retinol).
as §2, §3, §4

Assay [3] has as its target recombinant 17bHSD4 (M1-N311) (Homo sapiens (Human), UniProt P51659). As to the kind of experiment: In Vitro 17bHSD4 Enzyme Assay. The conditions noted are these: 40 nM 17bHSD4, 0.125 mM NAD, 15 μM Estradiol, 1.5 h; NADH fluorescence; read-out: 17HSD17b4 Enzyme assay IC50. The assay is classed as biochemical. As to the method:
In Vitro 17bHSD4 Enzyme Assay
10 concentration of compounds (0.2 μl) in DMSO was added to GREINER FLUOTRAC 200 384 well plate (781076) using ECHO dispensing (BECKMAN COULTER). 80 nl of 10 mM Estradiol (SIGMA, E8875) was added using Echo dispensing. The enzyme reaction was initiated by addition, using MULTIDROP COMBI dispensing (THERMO FISHER), of 40 μl of a mix containing recombinant 17bHSD4 (M1-N311) and NAD. Final assay conditions were 40 nM of 17bHSD4, 0.125 mM of NAD, 15 μM Estradiol and various concentrations of compound in buffer (5 mM EDTA (TEKNOVA E0306), 0.01% DDM (AFFYMETRIX D310) in 50 mM Tris-Cl, pH 7.4). After each addition plates were centrifuged for 1 min at 150×g (EPPENDORF, 5810R, A-4-81). NADH formation was measured by fluorescence intensity (FI) (Ex360/Em460) at time zero (to) and at 1.5 h (t1) in a PHERASTAR FSX (BMG LABTECH). FI for each sample was calculated as FI at t1 minus FI at t0.
as §2, §3, §4

Assay [4] concerns the target recombinant 17bHSD13 (N2-K300) (Homo sapiens (Human), UniProt Q7Z5P4). Description: In Vitro 17bHSD13 Enzyme Assay. The assay is classed as biochemical. The conditions noted are these: 80 nM 17bHSD13, 0.5 mM NAD, 20 μM Estradiol, 2.5 h; estradiol to estrone by LC-MS/MS. As for the experimental part: In Vitro 17bHSD13 Enzyme Assay
The enzyme reaction was initiated by addition, using CERTUS-FLEX dispenser (GYGER), of 20 μl of substrate solution containing NAD (SIGMA, N1511) and Estradiol (SIGMA, E8875). […] Final assay conditions were 80 nM of 17bHSD13, 0.5 mM of NAD, 20 μM Estradiol and various concentrations of compound in buffer (5 mM EDTA (TEKNOVA E0306), 0.01% DDM (AFFYMETRIX D310) in 50 mM Tris-Cl, pH 7.4).
as §1, with “analyzed” for “analysed”
as §2, §3, §4

pIC50: −log10 of the molar value. A value given as a limit tells only on which side of the number the result lay.

Sequence of recombinant 17bHSD13 (N2-K300) (Q7Z5P4 2-300): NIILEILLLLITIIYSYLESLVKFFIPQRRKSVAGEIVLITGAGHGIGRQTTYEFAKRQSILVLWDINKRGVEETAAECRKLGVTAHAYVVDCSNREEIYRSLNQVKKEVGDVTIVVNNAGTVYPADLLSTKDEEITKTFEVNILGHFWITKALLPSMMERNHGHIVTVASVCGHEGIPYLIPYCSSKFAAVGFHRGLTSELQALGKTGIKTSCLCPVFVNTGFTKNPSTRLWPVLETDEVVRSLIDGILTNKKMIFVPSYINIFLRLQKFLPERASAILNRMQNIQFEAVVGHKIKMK
Sequence of over expressed HSD17β13 in HEK293S cells (Q7Z5P4 20-300): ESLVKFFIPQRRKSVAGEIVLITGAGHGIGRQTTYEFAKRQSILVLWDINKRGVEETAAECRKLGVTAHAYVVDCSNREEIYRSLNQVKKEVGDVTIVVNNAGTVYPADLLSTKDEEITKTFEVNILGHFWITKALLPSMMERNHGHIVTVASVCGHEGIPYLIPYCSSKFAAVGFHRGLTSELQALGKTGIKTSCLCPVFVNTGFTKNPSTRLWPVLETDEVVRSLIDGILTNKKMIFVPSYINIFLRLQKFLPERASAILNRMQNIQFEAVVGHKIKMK
Sequence of recombinant 17bHSD4 (M1-N311) (P51659 1-311): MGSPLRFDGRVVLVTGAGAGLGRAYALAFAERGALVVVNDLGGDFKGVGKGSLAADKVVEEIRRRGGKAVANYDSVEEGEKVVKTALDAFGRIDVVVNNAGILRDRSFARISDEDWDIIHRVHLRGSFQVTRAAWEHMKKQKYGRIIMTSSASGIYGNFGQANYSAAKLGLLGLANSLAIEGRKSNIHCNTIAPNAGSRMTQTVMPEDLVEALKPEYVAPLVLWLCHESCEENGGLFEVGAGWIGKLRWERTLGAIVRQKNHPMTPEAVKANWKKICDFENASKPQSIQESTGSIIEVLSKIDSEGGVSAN

`O=C(c1noc(-c2cc(F)c(F)c(O)c2F)n1)N1CCCCC1` [Example 44, Piperidin-1-yl(5-(2,4,5-trifluoro-3-hydroxyphenyl)-1,2,4-oxadiazol-3-yl)methanone]: the pIC50 (commonly the IC50 on a negative log10 scale, so that one unit is a factor of ten) in assay [1] is 6.72; in assay [2] it was 4.95; in assay [3], 4.42; in assay [4], 6.36.

Turning to `O=C(c1noc(-c2cc(F)c(F)c(O)c2F)n1)N1CCOC2(CCCC2)C1` [Example 45, (6-Oxa-9-azaspiro[4.5]decan-9-yl)(5-(2,4,5-trifluoro-3-hydroxyphenyl)-1,2,4-oxadiazol-3-yl)methanone], the pIC50 in assay [1] was 6.29; in assay [2] it was 5.39; in assay [3] it was < 4.30; in assay [4], 6.33.

On to `O=C(c1noc(-c2cc(F)c(F)c(O)c2F)n1)N1CCO[C@H](C(F)(F)F)C1` [Example 46, (S)-(5-(2,4,5-Trifluoro-3-hydroxyphenyl)-1,2,4-oxadiazol-3-yl)(2-(trifluoromethyl)morpholino)methanone], for which the pIC50 is 6.43 in assay [1], 5.11 in assay [2], < 4.30 in assay [3] and 6.29 in assay [4].

As to `CC1(C)COCCN1C(=O)c1noc(-c2cc(F)c(F)c(O)c2F)n1` [Example 48, (3,3-Dimethylmorpholino)(5-(2,4,5-trifluoro-3-hydroxyphenyl)-1,2,4-oxadiazol-3-yl)methanone], the pIC50 in assay [1] is 5.96; in assay [2] it was < 4.30; in assay [3], < 4.30; in assay [4], 6.41.

For the compound `O=C(c1noc(-c2cc(F)c(F)c(O)c2F)n1)N1CCO[C@@H](CF)C1` [Example 49, (R)-(2-(Fluoromethyl)morpholino)(5-(2,4,5-trifluoro-3-hydroxyphenyl)-1,2,4-oxadiazol-3-yl)methanone], the pIC50 was 6.27 in assay [1], < 4.30 in assay [2], < 4.30 in assay [3] and 5.78 in assay [4].

`C[C@@H]1CCN(C(=O)c2noc(-c3cc(F)c(F)c(O)c3F)n2)CCO1` [Example 51, (R)-(7-Methyl-1,4-oxazepan-4-yl)(5-(2,4,5-trifluoro-3-hydroxyphenyl)-1,2,4-oxadiazol-3-yl)methanone]: the pIC50 in assay [1] is 5.57; in assay [2], < 4.30; in assay [3], < 4.30; in assay [4], 5.77.

On to `O=C(c1noc(-c2cc(F)c(F)c(O)c2F)n1)N1CCOC2(CCC2)C1` [Example 52, (5-Oxa-8-azaspiro[3.5]nonan-8-yl)(5-(2,4,5-trifluoro-3-hydroxyphenyl)-1,2,4-oxadiazol-3-yl)methanone], for which the pIC50 in assay [1] is 6.32; in assay [2], 5.92; in assay [3], 4.46; in assay [4] it was 6.55.

`O=C(c1noc(-c2cc(F)c(F)c(O)c2F)n1)N1CCOC2(CCOCC2)C1` [Example 53, (1,9-Dioxa-4-azaspiro[5.5]undecan-4-yl)(5-(2,4,5-trifluoro-3-hydroxyphenyl)-1,2,4-oxadiazol-3-yl)methanone]: the pIC50 in assay [1] was 5.25; in assay [2] it was < 4.30; in assay [3], < 4.30; in assay [4] it was 5.56.

Consider `C[C@H]1CN(C(=O)c2noc(-c3cc(F)c(F)c(O)c3F)n2)C[C@H](C)O1` [Example 54, ((2S,6S)-2,6-Dimethylmorpholino)(5-(2,4,5-trifluoro-3-hydroxyphenyl)-1,2,4-oxadiazol-3-yl)methanone], for which the pIC50 is 6.82 in assay [1], < 4.30 in assay [2], < 4.30 in assay [3] and 6.41 in assay [4].

Regarding `O=C(c1noc(-c2cc(F)c(F)c(O)c2F)n1)N1CC=C(c2ccccc2)CC1` [Example 62, (4-Phenyl-3,6-dihydropyridin-1(2H)-yl)(5-(2,4,5-trifluoro-3-hydroxyphenyl)-1,2,4-oxadiazol-3-yl)methanone], the pIC50 in assay [1] is 6.02; in assay [2], 4.80; in assay [3], 5.52; in assay [4], 7.34.

Take `O=C(c1noc(-c2cc(F)c(F)c(O)c2F)n1)N1CCc2ccccc2C1` [Example 64, (3,4-Dihydroisoquinolin-2(1H)-yl)(5-(2,4,5-trifluoro-3-hydroxyphenyl)-1,2,4-oxadiazol-3-yl)methanone]: the pIC50 in assay [1] was 6.57; in assay [2], 4.95; in assay [3] it was 5.25; in assay [4] it was 7.32.

With `COc1ccc(OC2CCN(C(=O)c3noc(-c4cc(F)c(F)c(O)c4F)n3)CC2)nc1` [Example 68, (4-((5-Methoxypyridin-2-yl)oxy)piperidin-1-yl)(5-(2,4,5-trifluoro-3-hydroxyphenyl)-1,2,4-oxadiazol-3-yl)methanone], the pIC50 is 6.10 in assay [1], 4.52 in assay [2], 4.58 in assay [3] and 7.36 in assay [4].
